The values below are quoted from earlier work in patent US10406122B2 (priority 2011, dated 2019).

What is called AUC is concentration integrated over time. By Cmax is commonly meant the peak of the concentration-time curve. As a reminder, the Tmax is the time from dosing to the highest level.

The conditions of data set [1]: tramadol […] [100 mg] p.o., single dose; cited from earlier work.
Data set [2] has as its system patients undergoing abdominal surgery. The settings on record: within the first 90 minutes of treatment; cited from earlier work.
In data set [3] the test system is experienced opioid abusers. The settings on record: cited from earlier work.
The test system of another data set is postoperative pain. The settings on record: after 4 to 6 hours, IV or IM intermittent injection; cited from earlier work.

On to (+)-O-desmethyltramadol [(+)-M1], for which, in data set [1], the AUC is 1258 ± 410 ng·h/mL, the highest concentration (Cmax) is recorded as 147 ± 39 ng/mL, the time of peak concentration (Tmax) is reported as 1.6 ± 0.5 h and the t1/2 is reported as 6.0 ± 1.0 h.

Turning to `CN1CC[C@]23c4c5ccc(O)c4O[C@H]2[C@@H](O)C=C[C@H]3[C@H]1C5` [morphine], in data set [2], the “responder rate (no or slight pain)” value is recorded as 81.2%. The “ratings of feel drug effect compared to placebo” value in data set [3] (IV over 5 minutes) is listed as “significantly increased ratings”. The “ratings of liking / ARCI-MBG scale” value in data set [3] (tramadol 100 and 200 mg IV, morphine 10 and 20 mg IV, over 5 minutes) is given as “significantly increased ratings”. The “reduction of pain intensity” value in the data set with postoperative pain was 69.8%.
